What is called inhibition is the share of the control response that was lost under treatment. By IC50 is commonly meant the concentration that inhibits the measured activity by half. Broadly, the fraction unbound is free concentration divided by total concentration. A higher fraction unbound goes with much free substance.

Structures are written as SMILES. Converted amounts (≈) assume the structure as drawn. Like-named read-outs stand apart in the source and are kept apart here.

The values that follow come from patent US20240190872A1, “FABI INHIBITORS FOR GRAM-NEGATIVE PATHOGENS” (THE BOARD OF TRUSTEES OF THE UNIVERSITY OF ILLINOIS, priority 2021, published 2024).

One data set relates to H. sapiens A549. Put plainly: In-vitro cytotoxicity. It counts as cell-based. Conditions: for IC50: cytotoxicity.
The next data set has as its system A. baumannii AR 0313. Put plainly: microbe, parasite or virus in culture. The conditions noted are these: Acinetobacter baumannii, AR0313, read-out: MIC A. baumannii AR 0313. The class given is cell-based. The essentials: (§1)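 CLSI broth micro-dilution in cation-adjusted Mueller-Hinton broth.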
Another data set relates to A. baumannii AR 0299. Put plainly: microbe, parasite or virus in culture. The class given is cell-based. The conditions noted are these: Acinetobacter baumannii, AR0299, read-out: MIC A. baumannii AR 0299. In outline: as §1
Another data set has as its system A. baumannii AR 0273. Put plainly: microbe, parasite or virus in culture. It counts as cell-based. The conditions noted are these: Acinetobacter baumannii, AR0273, read-out: MIC A. baumannii AR 0273. In outline: as §1
For the next data set, the system named is E. coli AR 0048. Put plainly: microbe, parasite or virus in culture. It counts as cell-based. The conditions noted are these: Escherichia coli, AR0048, read-out: MIC E. coli AR 0048. In outline:
as §1

For a further data set, the system named is A. baumannii AR 0033. Put plainly: microbe, parasite or virus in culture. The class given is cell-based. Conditions: Acinetobacter baumannii, AR0033, read-out: MIC A. baumannii AR 0033. In outline: as §1
In the next data set the test system is K. pneumoniae AR 0560. Put plainly: microbe, parasite or virus in culture. It counts as cell-based. The conditions noted are these: Klebsiella pneumoniae, AR0560, read-out: MIC K. pneumoniae AR 0560. The essentials: as §1
The next data set concerns K. pneumoniae AR 0113. Put plainly: microbe, parasite or virus in culture. The class given is cell-based. The conditions noted are these: Klebsiella pneumoniae, AR0113, read-out: MIC K. pneumoniae AR 0113. The essentials:
as §1

For another data set, the system named is E. coli AR 0085. Put plainly: microbe, parasite or virus in culture. The class given is cell-based. The conditions noted are these: Escherichia coli, AR0085, read-out: MIC E. coli AR 0085. In outline: as §1
In another data set the test system is K. pneumoniae AR 0066. Put plainly: microbe, parasite or virus in culture. It counts as cell-based. Conditions: Klebsiella pneumoniae, AR0066, read-out: MIC K. pneumoniae AR 0066. The essentials:
as §1

Another data set relates to E. coli ΔtolC (JW5503). It counts as cell-based. In outline:
(§2)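 MICs by CLSI broth microdilution in cation-adjusted Mueller-Hinton broth, performed in biological triplicate. Strains: efflux-deficient E. coli ΔtolC (JW5503, KEIO collection) and K. pneumoniae BAA-2472 (ATCC).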

The nature of data set [1]: in vitro. Conditions: human, plasma.
A further data set deals with E. coli MG1655. Put plainly: Antimicrobial susceptibility test (MIC). The conditions noted are these: Escherichia coli, MG1655. It counts as cell-based. In outline:
(§3)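 CLSI micro-dilution broth method in cation-adjusted Mueller-Hinton broth, in biological triplicate; human serum (pooled, filtered) was also used.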

Data set [2] is described as follows: in vitro. The conditions noted are these: mouse, plasma.
The subject of another data set is H. sapiens HFF-1. Put plainly: In-vitro cytotoxicity. The conditions noted are these: for IC50: cytotoxicity. The class given is cell-based.
The next data set concerns the target A. baumannii FabI (Acinetobacter baumannii, UniProt D0CAD5). Put plainly: biochemical. As for the experimental part: (§4) Mode of Action. To probe the effects of varying ring systems and amine placement on FabI target engagement, the apparent inhibition constants (Ki^app) for select compounds were determined using purified FabI. The goal of these studies was two-fold, to comparatively assess fabimycin, Debio-1452-NH3, and Debio-1452, and to also assess differential activity against the E. coli and A. baumannii versions of FabI. FabI from E. coli and A. baumannii were recombinantly expressed and purified, and the ability for each compound to inhibit the activity of these enzymes was evaluated using a standard FabI enzyme assay.
In vitro FabI inhibition assay. NADH (Sigma-Aldrich, Cat# N8129) and crotonoyl-CoA (Sigma-Aldrich, Cat# 28007) were both diluted into activity buffer [100 mM potassium glutamate (pH 7.8)], and working solution was dispensed into two columns of round-bottom 96-well plate (330 μL per well). Inhibitors, dissolved in DMSO at 200× final concentration, were added to each well via multichannel pipette (2.48 μL per well). After thorough mixing, this mixture was transferred to UV-transparent plate (UV-STAR half-area 96-well plate, Greiner Bio-One, Cat#675801, 100 μL per well, three technical replicates per inhibitor concentration). Plate was placed in plate-reader (SpectraMax 190, Molecular Devices) under temperature control (25° C.), and temperature was allowed to equilibrate. Fresh aliquot of enzyme from −80° C. was thawed on ice and diluted in activity buffer. Enzyme working solution was added to plate (50 μL per well, 20 nM enzyme final). After shaking for 5 s, reaction progress was monitored by absorbance at 340 nm every 15 s for 90 min. Linear portion of reaction progress curve was fit using plate-reader software (SoftMax Pro 7.0). Percent activity was calculated relative to DMSO-only and no-enzyme controls in each plate. Percent activity curves were fit to Morrison's quadratic using Graphpad Prism 6.0 to obtain apparent Ki.

Another data set deals with K. pneumoniae BAA 2472. Put plainly: microbe, parasite or virus in culture. The class given is cell-based. Conditions: Klebsiella pneumoniae, BAA2472, read-out: MIC K. pneumoniae BAA 2472. The essentials: as §2
For the next data set, the system named is S. aureus ATCC 29213. Put plainly: Antimicrobial susceptibility test (MIC), micro-dilution broth. It counts as cell-based. Conditions: Staphylococcus aureus, ATCC29213. The essentials: as §3
The target in the next data set is HERG (Homo sapiens (Human), UniProt Q12809). Put plainly: cell-based.
For the next data set, the system named is E. coli ATCC 25922. Put plainly: MIC. The conditions noted are these: Escherichia coli, ATCC25922; line under drawing, Table 8-1. The class given is cell-based.
The nature of data set [3]: Plasma protein binding. The conditions noted are these: human, plasma.
The next data set deals with E. coli FabI (Escherichia coli (strain K12), UniProt P0AEK4). Put plainly: In vitro FabI inhibition assay. The class given is biochemical. As for the experimental part:
as §4
In vitro FabI inhibition assay. NADH (Sigma-Aldrich, Cat# N8129) and crotonoyl-CoA (Sigma-Aldrich, Cat# 28007) were both diluted into activity buffer [100 mM potassium glutamate (pH 7.8)], and working solution was dispensed into two columns of round-bottom 96-well plate (330 μL per well). […] Plate was placed in plate-reader (SpectraMax 190, Molecular Devices) under temperature control (25° C.), and temperature was allowed to equilibrate. […] After shaking for 5 s, reaction progress was monitored by absorbance at 340 nm every 15 s for 90 min. Linear portion of reaction progress curve was fit using plate-reader software (SoftMax Pro 7.0). Percent activity was calculated relative to DMSO-only and no-enzyme controls in each plate. […]

A short description of data set [4]: Plasma protein binding. Conditions: mouse, plasma.

Sequence of HERG (Q12809 whole entry): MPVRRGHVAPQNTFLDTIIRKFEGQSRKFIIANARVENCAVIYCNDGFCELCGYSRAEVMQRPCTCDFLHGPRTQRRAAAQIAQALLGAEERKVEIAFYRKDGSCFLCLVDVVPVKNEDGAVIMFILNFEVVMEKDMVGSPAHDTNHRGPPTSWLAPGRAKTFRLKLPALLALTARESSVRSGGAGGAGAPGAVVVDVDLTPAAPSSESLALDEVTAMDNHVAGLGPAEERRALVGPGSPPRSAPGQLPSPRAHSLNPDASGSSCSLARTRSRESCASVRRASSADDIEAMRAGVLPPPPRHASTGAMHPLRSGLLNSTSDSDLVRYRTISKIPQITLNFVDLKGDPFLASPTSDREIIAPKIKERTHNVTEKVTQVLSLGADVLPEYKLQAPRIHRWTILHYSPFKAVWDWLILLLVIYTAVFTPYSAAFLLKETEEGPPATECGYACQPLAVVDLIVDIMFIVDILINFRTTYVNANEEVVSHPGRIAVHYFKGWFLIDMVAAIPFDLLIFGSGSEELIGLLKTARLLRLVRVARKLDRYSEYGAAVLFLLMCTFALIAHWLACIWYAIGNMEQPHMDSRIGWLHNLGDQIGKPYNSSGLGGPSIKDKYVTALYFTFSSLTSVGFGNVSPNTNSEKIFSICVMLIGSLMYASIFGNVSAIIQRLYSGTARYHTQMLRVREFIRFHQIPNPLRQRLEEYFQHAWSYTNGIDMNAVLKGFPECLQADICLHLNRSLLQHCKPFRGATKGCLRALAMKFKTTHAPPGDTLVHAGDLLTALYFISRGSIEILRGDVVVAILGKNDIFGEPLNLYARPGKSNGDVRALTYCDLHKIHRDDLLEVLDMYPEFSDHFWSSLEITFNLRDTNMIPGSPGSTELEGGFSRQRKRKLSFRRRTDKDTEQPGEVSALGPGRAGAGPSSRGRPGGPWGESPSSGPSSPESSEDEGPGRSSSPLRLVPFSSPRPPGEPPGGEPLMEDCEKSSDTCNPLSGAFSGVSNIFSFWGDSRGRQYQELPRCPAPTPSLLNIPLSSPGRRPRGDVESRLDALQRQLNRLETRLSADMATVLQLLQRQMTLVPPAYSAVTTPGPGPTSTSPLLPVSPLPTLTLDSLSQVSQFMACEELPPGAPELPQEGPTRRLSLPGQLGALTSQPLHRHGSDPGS
Sequence of A. baumannii FabI (D0CAD5 1-288): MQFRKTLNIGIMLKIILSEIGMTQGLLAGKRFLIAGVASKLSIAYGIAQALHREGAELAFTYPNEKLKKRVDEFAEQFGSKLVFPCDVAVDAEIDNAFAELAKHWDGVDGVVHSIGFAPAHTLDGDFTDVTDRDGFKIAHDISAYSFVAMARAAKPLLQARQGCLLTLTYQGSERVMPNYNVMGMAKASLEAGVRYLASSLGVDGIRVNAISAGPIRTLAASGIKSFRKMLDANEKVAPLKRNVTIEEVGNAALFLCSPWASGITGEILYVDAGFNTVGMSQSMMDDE
Sequence of E. coli FabI (P0AEK4 whole entry): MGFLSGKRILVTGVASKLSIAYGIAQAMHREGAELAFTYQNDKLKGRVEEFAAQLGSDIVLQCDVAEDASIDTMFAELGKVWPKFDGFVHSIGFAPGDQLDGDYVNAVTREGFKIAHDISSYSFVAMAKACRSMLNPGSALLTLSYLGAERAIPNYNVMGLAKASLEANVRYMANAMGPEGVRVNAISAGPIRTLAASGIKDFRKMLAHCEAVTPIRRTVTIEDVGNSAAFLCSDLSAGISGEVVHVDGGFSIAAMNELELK

In the case of `Cc1c(CN(C)C(=O)/C=C/c2cnc3c(c2)CCC(=O)N3)oc2ccccc12` [Debio-1452, (E)-N-methyl-N-((3-methylbenzofuran-2-yl)methyl)-3-(7-oxo-5,6,7,8-tetrahydro-1,8-naphthyridin-3-yl)acrylamide, reference compound], the inhibition at 30 µM in the data set with H. sapiens A549 came to 13 ± 6%; with H. sapiens HFF-1, 18 ± 6%. The half-inhibitory concentration (IC50) with H. sapiens A549 turned out to be 166 ± 12 µM; in the data set on H. sapiens HFF-1, 165 ± 42 µM; against HERG it was 5.5 µM. In addition, the MIC with A. baumannii AR 0313, in the data set on A. baumannii AR 0299, with A. baumannii AR 0273, with E. coli AR 0048, with A. baumannii AR 0033 and in the data set on K. pneumoniae AR 0560 was greater than 32 µg/mL in each case. Also, the MIC is greater than 32 µg/mL with K. pneumoniae AR 0113; greater than 32 µg/mL in the data set on E. coli AR 0085; greater than 32 µg/mL in the data set with K. pneumoniae AR 0066; greater than 32 µg/mL against E. coli MG1655; greater than 32 µg/mL in the data set with K. pneumoniae BAA 2472; 0.008 µg/mL (≈ 0.0213 µM) in the data set with S. aureus ATCC 29213 (S. aureus ATCC 29213, read-out: MIC S. aureus 29213). In addition, in the data set on E. coli ΔtolC (JW5503) (efflux deficient E. coli ΔtolC), the “MIC E. coli ΔtolC” value is 0.062 µg/mL (≈ 0.165 µM). The fraction unbound in “in vitro [1]” was 0.019; in the data set “in vitro [2]”, 0.006. Besides, the Ki at A. baumannii FabI (purified FabI, apparent inhibition constant, read-out: A. baumannii FabI Ki^app) amounted to 0.799 ± 0.229 µM.
For the compound `O=C1CCc2cc(/C=C/C(=O)N3CC4C=C(c5ccccc5)CC4C3)cnc2N1` (stereo not drawn) [reference compound], in the data set with E. coli ΔtolC (JW5503) (line under drawing, Table 8-1), the “MIC E. coli ΔtolC mutant” value is “MIC E. coli ΔtolC mutant = ≤0.03 ug/mL”. In addition, the MIC against E. coli ATCC 25922 is greater than 32 µg/mL; in the data set on S. aureus ATCC 29213 (line under drawing, Table 8-1, read-out: MIC S. aureus ATCC 29213) it was 0.016 µg/mL (≈ 0.0415 µM).
As to `Cc1c(CN(C)C(=O)/C=C/c2cnc3c(c2)CC(N)C(=O)N3)oc2ccccc12` (racemic) [Debio-1452-NH3, (E)-3-(6-amino-7-oxo-5,6,7,8-tetrahydro-1,8-naphthyridin-3-yl)-N-methyl-N-((3-methylbenzofuran-2-yl)methyl)acrylamide], the inhibition at 30 µM in the data set on H. sapiens A549 came out at 29 ± 4%; in the data set with H. sapiens HFF-1 it was 11 ± 2%. Moreover, the IC50 in the data set on H. sapiens A549 is 68 ± 4 µM; in the data set on H. sapiens HFF-1, 63 ± 33 µM; against HERG, 5.7 µM. The unbound share (fraction unbound) was 0.107 in the data set “Plasma protein binding [3]” and 0.055 in “Plasma protein binding [4]”. Further, the Ki on E. coli FabI is 0.0035 ± 0.0005 µM; at A. baumannii FabI it was 0.114 µM.
